Assay results reported in patent publication US11970479B2, “3-(1H-pyrazol-4-yl)pyridine allosteric modulators of the M4 muscarinic acetylcholine receptor” (Merck Sharp & Dohme LLC, priority 2018, dated 2024).

Each compound was assayed against T1, human M4 muscarinic acetylcholine receptor (Homo sapiens, UniProt P08173) (assay: human FLIPR-based M4 PAM assay (CHO-K1 cells with human M4 receptor and Gαqi5, calcium dye fluorescence, EC20 acetylcholine)). Settings: inflection point (IP) of the dose response curve, human M4 receptor/Gαqi5, acetylcholine at 20% of maximum response, read-out: M4PAM Hu IP.
T1 construct: expressed in transfected cells
T1 sequence (P08173 1-479): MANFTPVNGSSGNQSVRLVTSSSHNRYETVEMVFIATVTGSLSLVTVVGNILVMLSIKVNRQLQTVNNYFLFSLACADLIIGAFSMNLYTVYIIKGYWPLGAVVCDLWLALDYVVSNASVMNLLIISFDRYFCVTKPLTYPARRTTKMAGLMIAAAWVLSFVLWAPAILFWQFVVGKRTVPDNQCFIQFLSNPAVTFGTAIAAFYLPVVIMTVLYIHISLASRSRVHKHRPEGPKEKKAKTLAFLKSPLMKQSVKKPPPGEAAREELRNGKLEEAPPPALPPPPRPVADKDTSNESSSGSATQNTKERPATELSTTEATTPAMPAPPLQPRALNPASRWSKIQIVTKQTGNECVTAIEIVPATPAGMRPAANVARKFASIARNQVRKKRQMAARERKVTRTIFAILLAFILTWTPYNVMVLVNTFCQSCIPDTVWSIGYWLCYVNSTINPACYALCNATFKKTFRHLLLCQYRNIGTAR
Type: cell-based
Description: (§1) In a typical experiment the M4 muscarinic acetylcholine receptor modulating activity of the compounds of the present invention was determined in accordance with the following experimental method. CHO-K1 cells stably transfected with human M4 receptor and chimeric G-protein Gαqi5 (Coward P, et al., Analytical Biochemistry, 270:242-248 (1999)) are thawed from liquid N2 storage, resuspended in growth medium, plated in black, clear bottom 384 well plates, and incubated 16-20 hours at 37° C., 5% CO2. On the day of assay, growth medium is removed, the cells are washed 2 times with wash buffer, and cells are incubated in dye loading buffer at 37° C., 5% CO2 for ˜1 hour. Following dye loading the cell plates are placed in a FLIPR Tetra instrument and while monitoring dye fluorescence (excitation […]), 10 uL of test substance at increasing concentrations is added, and fluorescence values are recorded for 4 min. Next, 10 uL of acetylcholine is added (final concentration calculated so as to achieve 20% of the maximum acetycholine response), and the fluorescence reading is continued for 3.5 min. In some cases, a third addition of acetylcholine (final concentration calculated to achieve 70% of the maximal acetylcholine response) is performed. The resulting dose response curves are fit to a 4 parameter logistic equation and the final result is determined as the inflection point (IP) of the curve
as §1, with “CHO-K1” for “In a typical experiment the M4 muscarinic acetylcholine receptor modulating activity of the compounds of the present invention was determined in accordance with the following experimental method. CHO-K1”, “Gαqi5” for “Gαqi5 (Coward P, et al., Analytical Biochemistry, 270:242-248 (1999))”, “performed.” for “performed. The resulting dose response curves are fit to a 4 parameter logistic equation and the final result is determined as the inflection point (IP) of the curve”

Row | Compound | EC50 [nM]
1 | COc1cc2ccc(-c3ncccc3-c3cnn(CC4(C)CCCCC4)c3)cc2nn1 [Example 1, 3-methoxy-7-(3-{1-[(1-methylcyclohexyl)methyl]-1H-pyrazol-4-yl}pyridin-2-yl)cinnoline] | 22
2 | COc1cc2ccc(-c3nc(C)ccc3-c3cnn(CCC(C)(C)F)c3)cc2nn1 [Example 3, 7-{3-[1-(3-fluoro-3-methylbutyl)-1H-pyrazol-4-yl]-6-methylpyridin-2-yl}-3-methoxycinnoline] | 57
3 | Cc1ccc(-c2cnn(Cc3ccccc3)c2)c(-c2ccc3cccnc3c2)n1 [Example 4, 7-[3-(1-benzyl-1H-pyrazol-4-yl)-6-methylpyridin-2-yl]quinoline] | 91
4 | COc1cc2ccc(-c3nc(C)ccc3-c3cnn(Cc4ccccc4)c3)cc2nn1 [Example 5, 7-[3-(1-benzyl-1H-pyrazol-4-yl)-6-methylpyridin-2-yl]-3-methoxycinnoline] | 93
5 | Cc1ccc(-c2cnn(CC(C)(C)C)c2)c(-c2ccc3cccnc3c2)n1 [Example 6, 7-{3-[1-(2,2-dimethylpropyl)-1H-pyrazol-4-yl]-6-methylpyridin-2-yl}quinoline] | 19
6 | Cc1ccc(-c2cnn(CC34CC(C3)C4)c2)c(-c2ccc3cccnc3c2)n1 [Example 9, 7-{3-[1-(bicyclo[1.1.1]pent-1-ylmethyl)-1H-pyrazol-4-yl]-6-methylpyridin-2-yl}quinoline] | 21
7 | COc1cc2ccc(-c3nc(C)ccc3-c3cnn(CC45CC(C4)C5)c3)cc2nn1 [Example 10, 7-{3-[1-(bicyclo[1.1.1]pent-1-ylmethyl)-1H-pyrazol-4-yl]-6-methylpyridin-2-yl}-3-methoxycinnoline] | 20
8 | Cc1ccc(-c2cnn(CCC(C)C(F)(F)F)c2)c(-c2ccc3cccnc3c2)n1 (stereo not drawn) [Example 11, 7-{6-methyl-3-[1-(4,4,4-trifluoro-3-methylbutyl)-1H-pyrazol-4-yl]pyridin-2-yl}quinoline] | 89
9 | Cc1ccc(-c2cnn(CC34CC5CC(CC(C5)C3)C4)c2)c(-c2ccc3cccnc3c2)n1 [Example 12, 7-(3-(1-(((3r,5r,7r)-adamantan-1-yl)methyl)-1H-pyrazol-4-yl)-6-methylpyridin-2-yl)quinoline] | 80
10 | COc1cc2ccc(-c3nc(C)ccc3-c3cnn(CC45CC6CC(CC(C6)C4)C5)c3)cc2nn1 [Example 13, 7-(3-(1-(((3r,5r,7r)-adamantan-1-yl)methyl)-1H-pyrazol-4-yl)-6-methylpyridin-2-yl)-3-methoxycinnoline] | 37
11 | COc1cc2ccc(-c3nc(C)ccc3-c3cnn(CC45CCC(CC4)CC5)c3)cc2nn1 [Example 15, 7-{3-[1-(bicyclo[2.2.2]oct-1-ylmethyl)-1H-pyrazol-4-yl]-6-methylpyridin-2-yl}-3-methoxycinnoline] | 14
12 | Cc1ccc(-c2cnn(CC3CCC(F)(F)CC3)c2)c(-c2ccc3cccnc3c2)n1 [Example 16, 7-(3-{1-[(4,4-difluorocyclohexyl)methyl]-1H-pyrazol-4-yl}-6-methylpyridin-2-yl)quinoline] | 124
13 | Cc1ccc(-c2cnn(CC3CCC(F)CC3)c2)c(-c2ccc3cccnc3c2)n1 (stereo not drawn) [Example 18, 7-(3-{1-[(4-fluorocyclohexyl)methyl]-1H-pyrazol-4-yl}-6-methylpyridin-2-yl)quinoline] | 88
14 | COc1cc2ccc(-c3nc(C)ccc3-c3cnn(CC4CCC(F)CC4)c3)cc2nn1 (stereo not drawn) [Example 19, 7-(3-{1-[(4-fluorocyclohexyl)methyl]-1H-pyrazol-4-yl}-6-methylpyridin-2-yl)-3-methoxycinnoline] | 43
15 | Cc1ccc(-c2cnn(Cc3ccccc3F)c2)c(-c2ccc3cccnc3c2)n1 [Example 20, 7-{3-[1-(2-fluorobenzyl)-1H-pyrazol-4-yl]-6-methylpyridin-2-yl}quinoline] | 92
16 | COc1cc2ccc(-c3nc(C)ccc3-c3cnn(Cc4ccccc4F)c3)cc2nn1 [Example 21, 7-{3-[1-(2-fluorobenzyl)-1H-pyrazol-4-yl]-6-methylpyridin-2-yl}-3-methoxycinnoline] | 62
17 | COc1cc2ccc(-c3nc(C)ccc3-c3cnn(CC4(C(F)(F)F)CCC4)c3)cc2nn1 [Example 24, 3-methoxy-7-[6-methyl-3-(1-{[1-(trifluoromethyl)cyclobutyl]methyl}-1H-pyrazol-4-yl)pyridin-2-yl]cinnoline] | 151
18 | COc1cc2ccc(-c3nc(C)ccc3-c3cnn(CC4(C)CC4)c3)cc2nn1 [Example 26, 3-methoxy-7-(6-methyl-3-{1-[(1-methylcyclopropyl)methyl]-1H-pyrazol-4-yl}pyridin-2-yl)cinnoline] | 70
19 | N#Cc1ccc(-c2cnn(CC3(C(F)F)CC3)c2)c(-c2ccc3cccnc3c2)n1 [Example 27, 5-(1-{[1-(difluoromethyl)cyclopropyl]methyl}-1H-pyrazol-4-yl)-6-quinolin-7-ylpyridine-2-carbonitrile] | 33
20 | COc1cc2ccc(-c3nc(C#N)ccc3-c3cnn(CC4(C(F)F)CC4)c3)cc2nn1 [Example 28, 5-(1-{[1-(difluoromethyl)cyclopropyl]methyl}-1H-pyrazol-4-yl)-6-(3-methoxycinnolin-7-yl)pyridine-2-carbonitrile] | 44

Next, values leading:

Row | EC50 [nM] | Compound
21 | 57 | COc1cc2ccc(-c3nc(C)ccc3-c3cnn(CC4(C)CCOC4)c3)cc2nn1 (single isomer, unassigned) [Example 98, 3-methoxy-7-(6-methyl-3-{1-[(3-methyltetrahydrofuran-3-yl)methyl]-1H-pyrazol-4-yl}pyridin-2-yl)cinnoline]
22 | 169 | COc1cc2ccc(-c3nc(C)ccc3-c3cnn(CC4(C)CCOC4)c3)cc2nn1 (single isomer, unassigned) [Example 99, 3-methoxy-7-(6-methyl-3-{1-[(3-methyltetrahydrofuran-3-yl)methyl]-1H-pyrazol-4-yl}pyridin-2-yl)cinnoline]
23 | 70 | Cc1ccc(-c2cnn(CCC(C)(C)F)c2)c(-c2ccc3cccnc3c2)n1 [Example 2, 7-(3-(1-(3-fluoro-3-methylbutyl)-1H-pyrazol-4-yl)-6-methylpyridin-2-yl)quinoline]
24 | 137 | Cc1ccc(-c2cnn(CC3(C)CCCCC3)c2)c(-c2ccc3cc(C(F)(F)F)cnc3c2)n1 [Example 7, 7-(6-methyl-3-{1-[(1-methylcyclohexyl)methyl]-1H-pyrazol-4-yl}pyridin-2-yl)-3-(trifluoromethyl)quinoline]
25 | 72 | COc1cc2ccc(-c3nc(C)ccc3-c3cnn(CC4CCC4)c3)cc2nn1 [Example 8, 7-{3-[1-(cyclobutylmethyl)-1H-pyrazol-4-yl]-6-methylpyridin-2-yl}-3-methoxycinnoline]
26 | 20 | Cc1ccc(-c2cnn(CC34CCC(CC3)CC4)c2)c(-c2ccc3cccnc3c2)n1 [Example 14, 7-{3-[1-(bicyclo[2.2.2]oct-1-ylmethyl)-1H-pyrazol-4-yl]-6-methylpyridin-2-yl}quinoline]
27 | 56 | COc1cc2ccc(-c3nc(C)ccc3-c3cnn(CC4CCC(F)(F)CC4)c3)cc2nn1 [Example 17, 7-(3-{1-[(4,4-difluorocyclohexyl)methyl]-1H-pyrazol-4-yl}-6-methylpyridin-2-yl)-3-methoxycinnoline]
28 | 16 | COc1cc2ccc(-c3nc(C)ccc3-c3cnn(CC4(C)CCC(F)(F)CC4)c3)cc2nn1 [Example 22, 7-(3-{1-[(4,4-difluoro-1-methylcyclohexyl)methyl]-1H-pyrazol-4-yl}-6-methylpyridin-2-yl)-3-methoxycinnoline]
29 | 111 | COc1cc2ccc(-c3nc(C)ccc3-c3cnn(CC4(C)CCCO4)c3)cc2nn1 (stereo not drawn) [Example 23, 3-methoxy-7-(6-methyl-3-{1-[(2-methyltetrahydrofuran-2-yl)methyl]-1H-pyrazol-4-yl}pyridin-2-yl)cinnoline]
30 | 46 | COc1cc2ccc(-c3nc(C)ccc3-c3cnn(CC4(C)CCC4)c3)cc2nn1 [Example 25, 3-methoxy-7-(6-methyl-3-{1-[(1-methylcyclobutyl)methyl]-1H-pyrazol-4-yl}pyridin-2-yl)cinnoline]
